This is an account of results in patent US11254696B2, “Dianilinopyrimidine compound for inhibiting kinase activity” (Shenzhen Targetrx, Inc., priority 2017, dated 2022).

One data set relates to ALK F1174C/V. To be noted: Crizotinib-resistant mutation; cited from earlier work.
Another data set addresses ALK G1202R (Homo sapiens, UniProt Q9UM73, G1202R). As to conditions: Crizotinib-resistant mutation; cited from earlier work.
In a further data set the target is ALK [WT] (Homo sapiens, UniProt Q9UM73). Nature of the data set: Kinase inhibition assay, ALK [WT]. The format is biochemical.
A further data set has as its target ALK [L1196M] (Homo sapiens, UniProt Q9UM73, L1196M). The data set is described as follows: Kinase inhibition assay, ALK [L1196M]. The format is biochemical.
The next data set deals with BaF3 parental. The data set is described as follows: Cytotoxicity test (CellTiter-Glo), BaF3 parental. Type of data set: cell-based. To be noted: Mus musculus, 72 hours, read-out: IC50(nM) parental (Ba/F3). In outline: (§1)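 Anti-proliferative activity measured in Ba/F3 parental (grown with 10 ng/ml IL-3), Ba/F3 EML4-ALK and Ba/F3 EML4-ALK L1196M cells (grown without IL-3). Cells were seeded overnight, then treated with 10 concentrations (top 20 μM, 3-fold dilutions, duplicate) for 72 h at 37 °C. Viability was read by CellTiter-Glo luminescence and IC50 derived from dose-effect curves.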
On the technique in general: ATP-based viability assays read luminescence as a measure of living cells.

Data set [1] has as its target T1, BaF3 [EML4-ALK] (Homo sapiens, UniProt Q9UM73).
T1 construct: IC50(nM) ALK (Ba/F3); other: 72 hours, CellTiter-Glo; BaF3 [EML4-ALK]; fused on or other part: Q9HC35 (Echinoderm microtubule-associated protein-like 4)
Nature of the data set: Cytotoxicity test (CellTiter-Glo), BaF3 [EML4-ALK]. Type of data set: cell-based. As to conditions: 72 hours, CellTiter-Glo; read-out: IC50(nM) ALK (Ba/F3). Put shortly:
as §1

Data set [2] has as its system BaF3 [EML4-ALK]. Nature of the data set: Cytotoxicity test (CellTiter-Glo), BaF3 [EML4-ALK]. The format is cell-based. To be noted: Ba/F3 cells. In outline:
as §1

The target of data set [3] is T2, ALK[L1196M] (Ba/F3) (Homo sapiens, UniProt Q9UM73, L1196M, cells depend on it).
T2 construct: IC50(nM) ALK[L1196M]; (Ba/F3); other: 72 hours, CellTiter-Glo; BaF3 [EMF4-AFK F1196M]; fused on or other part: Q9HC35 (Echinoderm microtubule-associated protein-like 4)
Nature of the data set: Cytotoxicity test (CellTiter-Glo), BaF3 EML4-ALK L1196M. The format is cell-based. As to conditions: 72 hours, CellTiter-Glo; read-out: IC50(nM) ALK[L1196M] (Ba/F3). Put shortly:
as §1

The subject of data set [4] is ALK[L1196M] (Ba/F3). Described as above. The format is cell-based. As to conditions: Ba/F3 cells. Put shortly: as §1
Data set [5] can be described thus: Metabolic stability in human liver microsomes. To be noted: pH 7.4, 1 μM compound, 0.5 mg/mL protein. Type of data set: in vitro ADME. For orientation: Liver microsomes are vesicles of endoplasmic reticulum, rich in cytochrome P450 enzymes.
Data set [6] in a line: Metabolic stability in rat liver microsomes. Type of data set: in vitro ADME. To be noted: SD, pH 7.4, 1 μM compound, 0.5 mg/mL protein.

SMILES strings stand for the structures. A value given as a limit tells only on which side of the number the result lay.

ALK G1202R, sequence (Q9UM73 19-1620 G1202R): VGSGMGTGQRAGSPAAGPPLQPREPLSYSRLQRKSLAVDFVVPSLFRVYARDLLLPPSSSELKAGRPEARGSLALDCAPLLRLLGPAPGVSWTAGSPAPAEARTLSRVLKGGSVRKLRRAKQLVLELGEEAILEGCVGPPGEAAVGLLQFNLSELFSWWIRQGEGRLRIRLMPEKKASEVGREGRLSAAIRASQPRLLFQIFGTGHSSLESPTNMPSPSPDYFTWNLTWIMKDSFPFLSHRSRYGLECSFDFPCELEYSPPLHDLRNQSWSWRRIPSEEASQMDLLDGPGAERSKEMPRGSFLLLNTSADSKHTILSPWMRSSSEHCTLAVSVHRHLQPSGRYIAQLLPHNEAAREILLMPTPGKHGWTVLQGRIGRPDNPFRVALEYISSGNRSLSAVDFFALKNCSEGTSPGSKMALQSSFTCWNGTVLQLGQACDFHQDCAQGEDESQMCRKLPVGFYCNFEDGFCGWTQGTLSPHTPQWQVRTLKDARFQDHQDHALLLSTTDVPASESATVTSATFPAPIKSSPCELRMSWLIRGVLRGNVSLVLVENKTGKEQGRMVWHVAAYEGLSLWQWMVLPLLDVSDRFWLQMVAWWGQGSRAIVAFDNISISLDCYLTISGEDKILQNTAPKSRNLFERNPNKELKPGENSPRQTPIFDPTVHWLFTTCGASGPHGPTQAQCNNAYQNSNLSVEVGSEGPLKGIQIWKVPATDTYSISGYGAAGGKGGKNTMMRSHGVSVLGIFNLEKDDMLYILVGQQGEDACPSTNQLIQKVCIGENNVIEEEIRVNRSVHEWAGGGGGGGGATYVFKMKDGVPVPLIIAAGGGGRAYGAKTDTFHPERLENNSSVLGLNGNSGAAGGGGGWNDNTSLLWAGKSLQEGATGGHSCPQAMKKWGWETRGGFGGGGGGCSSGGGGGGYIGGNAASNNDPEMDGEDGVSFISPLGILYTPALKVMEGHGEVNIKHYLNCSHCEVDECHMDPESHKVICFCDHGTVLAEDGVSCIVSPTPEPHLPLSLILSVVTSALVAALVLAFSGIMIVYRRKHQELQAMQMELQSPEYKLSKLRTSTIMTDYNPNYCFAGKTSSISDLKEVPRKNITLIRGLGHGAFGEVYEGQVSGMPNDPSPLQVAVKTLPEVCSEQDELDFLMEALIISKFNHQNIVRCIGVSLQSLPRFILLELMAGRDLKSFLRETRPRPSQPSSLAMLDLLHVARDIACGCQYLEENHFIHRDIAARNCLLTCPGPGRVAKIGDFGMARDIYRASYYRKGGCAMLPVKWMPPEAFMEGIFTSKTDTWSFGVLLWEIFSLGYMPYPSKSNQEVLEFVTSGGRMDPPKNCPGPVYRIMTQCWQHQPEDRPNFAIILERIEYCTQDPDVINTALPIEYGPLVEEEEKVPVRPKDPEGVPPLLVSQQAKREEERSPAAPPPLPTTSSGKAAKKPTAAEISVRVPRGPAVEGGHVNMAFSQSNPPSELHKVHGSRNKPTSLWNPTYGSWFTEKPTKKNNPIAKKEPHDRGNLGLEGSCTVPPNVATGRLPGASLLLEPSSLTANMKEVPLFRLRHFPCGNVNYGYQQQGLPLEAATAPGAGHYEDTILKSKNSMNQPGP
ALK [L1196M], sequence (Q9UM73 19-1620 L1196M): as the sequence (Q9UM73 19-1620 G1202R) above, with L1178M, R1184G counted along it
T2 sequence (Q9UM73 whole entry L1196M, the tested form may be a part): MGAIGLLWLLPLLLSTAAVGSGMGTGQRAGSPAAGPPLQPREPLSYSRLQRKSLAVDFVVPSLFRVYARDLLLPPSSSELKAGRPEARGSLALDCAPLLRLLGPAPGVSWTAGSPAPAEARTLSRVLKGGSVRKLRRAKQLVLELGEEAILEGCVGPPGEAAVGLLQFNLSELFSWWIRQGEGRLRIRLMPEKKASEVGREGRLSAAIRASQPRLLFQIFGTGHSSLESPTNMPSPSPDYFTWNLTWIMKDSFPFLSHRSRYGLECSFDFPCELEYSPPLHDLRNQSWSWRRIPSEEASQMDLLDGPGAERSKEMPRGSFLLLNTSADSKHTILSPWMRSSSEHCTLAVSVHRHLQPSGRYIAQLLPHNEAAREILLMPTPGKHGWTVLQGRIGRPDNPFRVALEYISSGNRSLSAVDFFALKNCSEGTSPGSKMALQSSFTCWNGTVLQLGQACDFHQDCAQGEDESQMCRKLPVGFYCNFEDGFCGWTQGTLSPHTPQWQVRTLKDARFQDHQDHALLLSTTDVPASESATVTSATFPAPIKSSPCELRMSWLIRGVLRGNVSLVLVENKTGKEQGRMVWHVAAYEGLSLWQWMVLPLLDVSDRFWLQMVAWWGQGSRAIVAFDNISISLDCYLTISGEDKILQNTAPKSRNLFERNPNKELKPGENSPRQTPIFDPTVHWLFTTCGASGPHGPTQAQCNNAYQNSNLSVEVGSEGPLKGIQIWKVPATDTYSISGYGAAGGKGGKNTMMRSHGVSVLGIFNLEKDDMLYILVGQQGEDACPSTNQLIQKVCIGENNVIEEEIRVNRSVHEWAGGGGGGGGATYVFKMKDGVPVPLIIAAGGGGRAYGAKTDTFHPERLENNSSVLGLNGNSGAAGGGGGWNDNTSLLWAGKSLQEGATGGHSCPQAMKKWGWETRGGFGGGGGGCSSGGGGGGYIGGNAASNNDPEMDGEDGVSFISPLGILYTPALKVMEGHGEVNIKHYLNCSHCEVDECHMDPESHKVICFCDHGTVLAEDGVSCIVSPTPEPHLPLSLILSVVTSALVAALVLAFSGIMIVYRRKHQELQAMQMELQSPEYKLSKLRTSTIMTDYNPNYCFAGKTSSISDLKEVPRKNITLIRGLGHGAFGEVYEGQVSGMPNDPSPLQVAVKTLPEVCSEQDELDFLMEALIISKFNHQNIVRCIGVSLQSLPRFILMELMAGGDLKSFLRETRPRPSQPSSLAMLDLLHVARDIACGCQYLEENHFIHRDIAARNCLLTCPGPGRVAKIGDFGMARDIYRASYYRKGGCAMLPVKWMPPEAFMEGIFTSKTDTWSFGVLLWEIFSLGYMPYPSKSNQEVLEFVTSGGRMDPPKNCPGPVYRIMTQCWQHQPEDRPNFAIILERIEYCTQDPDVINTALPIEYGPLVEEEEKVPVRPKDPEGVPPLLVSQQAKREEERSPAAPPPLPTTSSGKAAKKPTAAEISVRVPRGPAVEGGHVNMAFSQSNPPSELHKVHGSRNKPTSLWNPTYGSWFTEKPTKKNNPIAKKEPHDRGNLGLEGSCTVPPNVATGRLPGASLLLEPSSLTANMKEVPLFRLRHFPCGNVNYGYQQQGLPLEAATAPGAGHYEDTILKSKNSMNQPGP
ALK [WT], sequence (Q9UM73 19-1620): as the sequence (Q9UM73 19-1620 G1202R) above, with R1184G counted along it
T1 sequence (Q9UM73 whole entry, change not shown, the tested form may be a part): as the sequence (Q9UM73 whole entry L1196M, the tested form may be a part) above, with M1196L counted along it

On to `Cc1cc(Nc2ncc(Cl)c(Nc3ccccc3S(=O)(=O)C(C)C)n2)c(OC(C)C)cc1C1CCNCC1` [Ceritinib], for which the “effect on F1174C/V” value in the data set on ALK F1174C/V is given as “no effect”. Further, the “effect on G1202R” value at ALK G1202R was “neither of them has effect”.

Regarding `CNCCc1cc(OC)c(Nc2ncc(Cl)c(Nc3ccccc3P(C)(C)=O)n2)cc1C` [Example 21, (2-((5-chloro-2-((2-methoxy-5-methyl-4-(2-(methylamino)ethyl)phenyl)amino)pyrimidin-4-yl)amino)phenyl)dimethylphosphine oxide], the IC50 on ALK [WT] is 2 to 5 nM; at ALK [L1196M], 5 to 10 nM; in the data set with BaF3 parental, at least 1000 nM. The GI50 is 100 to 200 nM at BaF3 [EML4-ALK] [1] and 200 to 1000 nM on ALK[L1196M] (Ba/F3) [3]. Also, the “Selectivity parental/ALK” value with BaF3 [EML4-ALK] [2] is below 50. Moreover, the “Selectivity parental/ALK[L1196M]” value with ALK[L1196M] (Ba/F3) [4] is listed as below 50. The microsomal CLint at 1 μM in data set [5] (read-out: CLint (uL/min/mg), Human liver microsome experiment) is 27.7 µL/min/mg; in data set [6] (read-out: CLint (uL/min/mg), Rat liver microsome experiment), 7.2 µL/min/mg. Besides, the half-life at 1 μM in data set [5] (read-out: t1/2 (min), Human liver microsome experiment) came out at 50 min; in [6] (read-out: t1/2 (min), Rat liver microsome experiment), 193 min.
